Data from patent US5043328A, “Formulations containing unsaturated fatty acids for the synthesis of prostaglandins and hydroxy-fatty acids in biological systems” (priority 1986, dated 1991).

Assay: Storage of sodium arachidonate solution at room temperature for 6 weeks
Format: physicochemical
Conditions: water; solution without additions, after 6 weeks at room temperature; read-out: arachidonic acid content
Description: 50 mg of sodium arachidonate, 500 mg of bovine serum albumin and 500 mg of L-tyrosine are dissolved under sterile conditions in 10 ml of twice distilled water and, likewise under sterile conditions, stored in a brown bottle. 93.5% of the arachidonic acid originally present are recovered after 6 weeks' storage at room temperature, whereas the same sodium arachidonate solution without additions virtually no longer contain any arachidonic acid after this time (content <0.8). The stabilized solution prepared in this way

CCCCC/C=C\C/C=C\C/C=C\C/C=C\CCCC(=O)O [sodium arachidonate]
remaining at 1008 h: < 0.8%
